Test results: ChEMBL document CHEMBL5543117, “Novel TLR4-Activating Vaccine Adjuvant Enhances the Production of Enterococcus faecium-binding Antibodies” (J Med Chem, 2024)
Calls of active or inactive are those of the source. No cut-off for these calls is given here.

Experiments:
[1] = system: Mus musculus; assay: Adjuvant activity in OVA-immunized C57BL/6J mouse model assessed as increase in IgG2c levels at 10 ug, sc administered on day 0 and as booster dose on day 21 and measured after 42 days by ELISA; type: functional, organism-based; conditions: dose 10.0 µg, time 42.0 day
[2] = system: Oryctolagus cuniculus; assay: Adjuvant activity in Enterococcus faecium PpiC-immunized New Zealand rabbit model assessed as production of PpiC specific antibody in sera at 1:25600 dilutions at 70.2 ug administered on day 0, 14 ug on day 7 and 14 and measured after 28 days absorbance based analysis; type: functional, organism-based; conditions: time 28.0 day
[3] = system: Oryctolagus cuniculus; assay: Adjuvant activity in Enterococcus faecium PpiC-immunized New Zealand rabbit model assessed as production of PpiC specific antibody in sera at 1:100 dilutions at 70.2 ug administered on day 0, 14 ug on day 7 and 14 and measured after 28 days by absorbance based analysis; type: functional, organism-based; conditions: time 28.0 day
[4] = system: Oryctolagus cuniculus; assay: Adjuvant activity in Enterococcus faecium PpiC-immunized New Zealand rabbit model assessed as production of PpiC specific antibody in sera at 70.2 ug administered on day 0, 14 ug on day 7 and 14 and measured after 28 days by ELISA; type: functional, organism-based; conditions: time 28.0 day
[5] = system: Mus musculus; assay: Adjuvant activity in OVA-immunized C57BL/6J mouse model assessed as increase in IgG2b levels at 10 ug, sc administered on day 0 and as booster dose on day 21 and measured after 42 days by ELISA; type: functional, organism-based; conditions: dose 10.0 µg, time 42.0 day
[6] = system: Mus musculus; assay: Adjuvant activity in OVA-immunized C57BL/6J mouse model assessed as increase in IgG1 levels at 10 ug, sc administered on day 0 and as booster dose on day 21 and measured after 42 days by ELISA; type: functional, organism-based; conditions: dose 10.0 µg, time 42.0 day
[7] = system: Oryctolagus cuniculus; assay: Adjuvant activity in Enterococcus faecium PpiC-immunized New Zealand rabbit model assessed as production of PpiC specific antibody in terminal bleed sera at 1:1600 dilutions at 70.2 ug administered on day 0, 14 ug on day 7 and 14 and measured after 28 days by ELISA; type: functional, organism-based; conditions: time 28.0 day
[8] = system: Oryctolagus cuniculus; assay: Adjuvant activity in Enterococcus faecium PpiC-immunized New Zealand rabbit model assessed as antibody production by measuring increase in vancomycin resistant Enterococcus faecium 11236/1 specific antibodies at 70.2 ug administered on day 0, 14 ug on day 7 and 14 and measured after 28 days by Whole-bacterial cell ELISA; type: functional, organism-based; conditions: time 28.0 day
[9] = system: Mus musculus; assay: Adjuvant activity in OVA-immunized C57BL/6J mouse model assessed as increase in IgG levels at 10 ug, sc administered on day 0 and as booster dose on day 21 and measured after 42 days by ELISA; type: functional, organism-based; conditions: dose 10.0 µg, time 42.0 day
[10] = system: Oryctolagus cuniculus; assay: Adjuvant activity in Enterococcus faecium PpiC-immunized New Zealand rabbit model assessed as production of PpiC specific antibody in sera at 1:50 dilutions at 70.2 ug administered on day 0, 14 ug on day 7 and 14 and measured after 28 days by absorbance based analysis; type: functional, organism-based; conditions: time 28.0 day
[11] = target: Toll-like receptor 2 (Homo sapiens) (UniProt O60603); assay: Agonist activity at human TLR2 in HEK-Blue hTLR2 cells assessed as increase in SEAP level at 0.1 to 25 uM incubated for 16 to 18 hrs by SEAP reporter gene based Quanti-Blue assay; type: cell-based; conditions: dose 0.1-25 µM, time 16-18 hrs
Chain of Toll-like receptor 2 (Homo sapiens) (O60603 whole entry): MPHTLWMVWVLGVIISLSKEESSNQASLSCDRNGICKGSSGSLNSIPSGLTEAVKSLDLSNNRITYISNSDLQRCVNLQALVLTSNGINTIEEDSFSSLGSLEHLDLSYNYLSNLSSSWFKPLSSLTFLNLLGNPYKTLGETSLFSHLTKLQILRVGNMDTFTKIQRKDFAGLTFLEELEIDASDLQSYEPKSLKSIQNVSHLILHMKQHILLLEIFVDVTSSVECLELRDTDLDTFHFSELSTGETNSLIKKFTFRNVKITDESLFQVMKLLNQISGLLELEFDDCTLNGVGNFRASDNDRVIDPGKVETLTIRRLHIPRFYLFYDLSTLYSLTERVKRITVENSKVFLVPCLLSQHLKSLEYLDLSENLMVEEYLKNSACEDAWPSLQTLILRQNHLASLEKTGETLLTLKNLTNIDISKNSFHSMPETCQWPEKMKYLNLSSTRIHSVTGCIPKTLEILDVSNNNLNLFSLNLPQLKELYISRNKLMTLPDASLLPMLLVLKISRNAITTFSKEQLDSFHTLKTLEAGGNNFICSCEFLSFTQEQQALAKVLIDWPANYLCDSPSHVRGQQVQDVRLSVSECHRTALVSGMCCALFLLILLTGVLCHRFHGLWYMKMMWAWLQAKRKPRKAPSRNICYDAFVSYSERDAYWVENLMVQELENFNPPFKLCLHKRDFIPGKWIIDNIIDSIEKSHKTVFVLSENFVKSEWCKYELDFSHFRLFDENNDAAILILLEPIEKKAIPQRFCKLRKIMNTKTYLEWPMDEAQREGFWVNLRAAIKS

[12] = system: THP1-Xblue; assay: Activation of TRAM/TRIF pathway in human THP1-Xblue cells assessed as increase in STAT1 phosphorylation by Western blot analysis; type: cell-based
[13] = system: Oryctolagus cuniculus; assay: Adjuvant activity in Enterococcus faecium PpiC-immunized New Zealand rabbit model assessed as production of PpiC specific antibody in terminal bleed sera at 1:1600 dilutions at 38.4 ug administered on day 0, 7.7 ug on day 7 and 14 and measured after 28 days by ELISA; type: functional, organism-based; conditions: time 28.0 day
[14] = target: Toll-like receptor 4 (Homo sapiens) (UniProt O00206); assay: Agonist activity at TLR4 in human THP1-Xblue cells assessed as increase in SEAP level at 0.1 to 10 uM incubated for 16 to 18 hrs by SEAP reporter gene based Quanti-Blue assay; type: cell-based; conditions: filed as agonist, dose 0.1-10 µM, time 16-18 hrs
Chain of Toll-like receptor 4 (Homo sapiens) (O00206 whole entry): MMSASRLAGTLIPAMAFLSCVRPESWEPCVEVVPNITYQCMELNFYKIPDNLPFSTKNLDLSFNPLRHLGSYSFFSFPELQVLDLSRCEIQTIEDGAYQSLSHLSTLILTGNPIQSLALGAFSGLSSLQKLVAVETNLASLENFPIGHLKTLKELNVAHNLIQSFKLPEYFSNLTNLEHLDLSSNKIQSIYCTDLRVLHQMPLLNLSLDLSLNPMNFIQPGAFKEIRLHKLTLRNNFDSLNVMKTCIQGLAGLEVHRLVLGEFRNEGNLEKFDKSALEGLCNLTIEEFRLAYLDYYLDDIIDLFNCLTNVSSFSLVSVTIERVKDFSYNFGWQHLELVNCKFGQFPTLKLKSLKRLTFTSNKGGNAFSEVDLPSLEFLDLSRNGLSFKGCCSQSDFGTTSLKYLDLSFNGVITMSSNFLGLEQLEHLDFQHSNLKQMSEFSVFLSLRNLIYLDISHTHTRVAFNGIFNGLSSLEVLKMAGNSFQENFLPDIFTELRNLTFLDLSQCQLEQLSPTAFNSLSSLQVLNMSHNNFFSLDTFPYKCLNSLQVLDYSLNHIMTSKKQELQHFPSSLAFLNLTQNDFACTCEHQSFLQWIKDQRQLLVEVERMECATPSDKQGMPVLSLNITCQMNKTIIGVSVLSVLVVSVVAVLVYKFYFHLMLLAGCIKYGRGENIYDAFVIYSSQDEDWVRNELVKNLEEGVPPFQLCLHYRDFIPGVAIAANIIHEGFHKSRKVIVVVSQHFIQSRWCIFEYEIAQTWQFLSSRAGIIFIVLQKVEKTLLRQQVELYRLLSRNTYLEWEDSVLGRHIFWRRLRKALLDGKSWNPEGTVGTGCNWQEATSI

[15] = system: Oryctolagus cuniculus; assay: Adjuvant activity in Enterococcus faecium PpiC-immunized New Zealand rabbit model assessed as production of PpiC specific antibody in sera at 1:50 dilutions at 38.4 ug administered on day 0, 7.7 ug on day 7 and 14 and measured after 28 days by absorbance based analysis; type: functional, organism-based; conditions: time 28.0 day
[16] = target: Toll-like receptor 4 (Homo sapiens) (UniProt O00206); assay: Agonist activity at human TLR4 in HEK-Blue hTLR4 cells assessed as increase in SEAP level incubated for 16 to 18 hrs by SEAP reporter gene based Quanti-Blue assay; type: cell-based; conditions: filed as agonist, dose 0.1-25 µM, time 16-18 hrs
[17] = system: THP1-Xblue; assay: Immunostimulatory activity in human THP1-Xblue cells assessed as increase in IL-6 release incubated for 16 to 18 hrs by ELISA; type: functional, cell-based; conditions: dose 0.1-10 µM, time 16-18 hrs
[18] = system: THP1-Xblue; assay: Activation of TRAM/TRIF pathway in human THP1-Xblue cells assessed as increase in IRF3 phosphorylation by Western blot analysis; type: cell-based
[19] = Toxicity in OVA-immunized C57BL/6J mouse model assessed as change in ALT level at 10 ug, SC administered on day 0 and as booster dose on day 20 and measured after 40 days; conditions: in vivo, 960 h, dose 10 µg, time 40 day
[20] = system: Oryctolagus cuniculus; assay: Adjuvant activity in Enterococcus faecium PpiC-immunized New Zealand rabbit model assessed as antibody production by measuring increase in vancomycin resistant Enterococcus faecium 11236/1 specific antibodies at 38.2 ug administered on day 0, 7.7 ug on day 7 and 14 and measured after 28 days by Whole-bacterial cell ELISA; type: functional, organism-based; conditions: time 28.0 day
[21] = Cytotoxicity against human THP1-Xblue cells assessed as reduction in cell viability at 0.1 to 10 uM incubated for 16 to 18 hrs by MTT assay; type: toxicity, cell-based; conditions: dose lower 0.1 µM, time lower 16 hrs, dose upper 10 µM, time upper 18 hrs
[22] = system: Mus musculus; assay: Effect on IgG2b levels in OVA-immunized C57BL/6J mouse model at 10 ug, sc administered on day 0 and as booster dose on day 21 and measured after 42 days by ELISA; type: functional, organism-based; conditions: dose 10.0 µg, time 42.0 day
[23] = system: THP1-Xblue; assay: Activation of TRAM/TRIF pathway in human THP1-Xblue cells assessed as induction of phosphorylated IRF3 nuclear translocation by immunofluorescence analysis; type: cell-based
[24] = Toxicity in OVA-immunized C57BL/6J mouse model assessed as change in body weight at 10 ug, SC administered on day 0 and measured after 4 days; conditions: in vivo, 96 h, dose 10 µg, time 4 day
[25] = Toxicity in OVA-immunized C57BL/6J mouse model assessed as change in AST level at 10 ug, SC administered on day 0 and as booster dose on day 20 and measured after 40 days; conditions: in vivo, 960 h, dose 10 µg, time 40 day
[26] = system: Oryctolagus cuniculus; assay: Adjuvant activity in Enterococcus faecium PpiC-immunized New Zealand rabbit model assessed as production of PpiC specific antibody in sera at 1:100 dilutions at 38.4 ug administered on day 0, 7.7 ug on day 7 and 14 and measured after 28 days by absorbance based analysis; type: functional, organism-based; conditions: time 28.0 day
[27] = target: Transcription factor p65 (Homo sapiens) (UniProt Q04206); assay: Induction of NFkappaB p65 nuclear translocation in human THP1-Xblue cells assessed as percentage of positive nuclei at 10 uM measured after 120 mins by Hoechst 33342 staining based immunofluorescence analysis (reference value: 0%); type: cell-based
Chain of Transcription factor p65 (Homo sapiens) (Q04206 whole entry): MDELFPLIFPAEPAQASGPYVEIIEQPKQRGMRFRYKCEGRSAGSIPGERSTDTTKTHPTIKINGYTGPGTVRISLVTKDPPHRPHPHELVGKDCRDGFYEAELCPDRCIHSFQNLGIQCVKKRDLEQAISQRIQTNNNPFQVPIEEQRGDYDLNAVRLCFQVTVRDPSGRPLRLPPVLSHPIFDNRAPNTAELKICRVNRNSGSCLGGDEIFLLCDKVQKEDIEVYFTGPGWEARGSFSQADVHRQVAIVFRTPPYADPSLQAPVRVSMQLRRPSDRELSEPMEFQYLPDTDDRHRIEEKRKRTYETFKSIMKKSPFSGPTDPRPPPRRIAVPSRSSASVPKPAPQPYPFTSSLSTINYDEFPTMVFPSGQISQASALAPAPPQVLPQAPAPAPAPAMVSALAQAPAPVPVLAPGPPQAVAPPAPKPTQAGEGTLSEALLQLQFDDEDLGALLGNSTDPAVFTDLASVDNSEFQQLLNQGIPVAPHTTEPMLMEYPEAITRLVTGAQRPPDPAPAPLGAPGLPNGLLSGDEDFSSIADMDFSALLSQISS

[28] = system: THP1-Xblue; assay: Immunostimulatory activity in human THP1-Xblue cells assessed as increase in TNF-alpha release incubated for 16 to 18 hrs by ELISA; type: functional, cell-based; conditions: dose 0.1-10 µM, time 16-18 hrs
[29] = system: Oryctolagus cuniculus; assay: Adjuvant activity in Enterococcus faecium PpiC-immunized New Zealand rabbit model assessed as production of PpiC specific antibody in sera at 38.4 ug administered on day 0, 7.7 ug on day 7 and 14 and measured after 28 days by ELISA; type: functional, organism-based; conditions: time 28.0 day
[30] = system: THP1-Xblue; assay: Induction of IFN-beta production in human THP1-Xblue cells; type: functional, cell-based
[31] = system: THP1-Xblue; assay: Immunostimulatory activity in human THP1-Xblue cells assessed as increase in IL-1beta release incubated for 16 to 18 hrs by ELISA; type: functional, cell-based; conditions: dose 0.1-10 µM, time 16-18 hrs
[32] = target: Toll-like receptor 4 (Homo sapiens) (UniProt O00206); assay: Agonist activity at TLR4 in human THP1-Xblue cells assessed as induction of p65 phosphorylation at 10 uM incubated for 120 to 240 mins by immunoblotting analysis; type: cell-based; conditions: filed as agonist, time 120-240 min
[33] = target: Toll-like receptor 4 (Homo sapiens) (UniProt O00206); assay: Agonist activity at TLR4 in human THP1-Xblue cells assessed as induction of IkappaBalpha degradation at 10 uM incubated for 15 mins by immunoblotting analysis; type: cell-based; conditions: filed as agonist
[34] = system: Oryctolagus cuniculus; assay: Adjuvant activity in Enterococcus faecium PpiC-immunized New Zealand rabbit model assessed as production of PpiC specific antibody in sera at 1:25600 dilutions at 38.4 ug administered on day 0, 7.7 ug on day 7 and 14 and measured after 28 days by absorbance based analysis; type: functional, organism-based; conditions: time 28.0 day
[35] = system: Oryctolagus cuniculus; assay: Induction of antibody production in New Zealand rabbit at 38.4 ug administered on day 0, 7.7 ug on day 7 and 14 and measured after 28 days by ELISA; type: functional, organism-based; conditions: time 28.0 day
[36] = target: Transcription factor p65 (Homo sapiens) (UniProt Q04206); assay: Induction of NFkappaB p65 nuclear translocation in human THP1-Xblue cells assessed as percentage of positive nuclei at 10 uM measured after 90 mins by Hoechst 33342 staining based immunofluorescence analysis relative to control (reference value: 0%); type: cell-based
[37] = system: THP1-Xblue; assay: Immunostimulatory activity in human THP1-Xblue cells assessed as increase in IL-6 release at 0.1 to 10 uM incubated for 16 to 18 hrs by ELISA; type: functional, cell-based; conditions: dose 0.1-10 µM, time 16-18 hrs

CCCCCCCCCCCCCC(=O)O[C@H](CCCCCCCCCCC)CC(=O)N[C@H]1[C@H](OC[C@H]2OC(O)[C@H](NC(=O)C[C@H](O)CCCCCCCCCCC)[C@@H](OC(=O)C[C@H](O)CCCCCCCCCCC)[C@@H]2O)O[C@H](CO)[C@@H](OP(=O)(O)O)[C@@H]1OC(=O)C[C@@H](CCCCCCCCCCC)OC(=O)CCCCCCCCCCCCC (some centres not stated)
Activity [1]: Active | Activity [2]: Active | Activity [3]: Active | Activity [4]: Active | Activity [5]: Active | Activity [6]: Active | Activity [7]: Active | Activity [8]: Active | Activity [9]: Active | Activity [10]: Active

CCCCCCCCCCCC(=O)N[C@H]1[C@H](OC(=O)CCCCCCCCCCC)O[C@H](COC(=O)C(C)(CO)CO)[C@@H](OP(=O)([O-])[O-])[C@@H]1OC(=O)CCCCCCCCCCC.[Na+].[Na+]
Activity [11]: inactive | Activity [1]: Active | Activity [12]: inactive | Activity [13]: Active | Activity [14]: Active | Activity [6]: Active | Activity [15]: Active | Activity [16]: Active | Activity [17]: Dose-Dependent Effect | Activity [18]: inactive | Activity [19]: Non-Toxic | Activity [20]: Active | Activity [21]: Non-Toxic | Activity [22]: inactive | Activity [23]: inactive | Activity [24]: Non-Toxic | Activity [25]: Non-Toxic | Activity [26]: Active | Activity [27]: 19% | Activity [28]: Dose-Dependent Effect | Activity [29]: Active | Activity [30]: inactive | Activity [31]: Dose-Dependent Effect | Activity [32]: Active | Activity [33]: Active | Activity [9]: Active | Activity [34]: Active | Activity [35]: inactive | Activity [36]: 15.3%

CCCCCCCCCCCC(=O)N[C@H]1[C@H](OC(=O)CCCCCCCCCCC)O[C@H](CO)[C@@H](OP(=O)(O)O)[C@@H]1OC(=O)CCCCCCCCCCC
Activity [27]: 1.8% | Activity [37]: inactive | Activity [36]: 1.3%
